This note sets out measurements from US20230321045A1 (priority 2022, published 2023).

Entries after “also recorded” stand apart in the source; their conditions may differ. Read-outs that look alike come from different tables or passages of the source.

Series [1] has as its system BSC40 cells.
Series [2] concerns vaccinia virus. It counts as cell-based.
The subject of series [3] is vaccinia virus. It counts as cell-based. The source holds these as a separate data set.
Series [4] has as its system H1N1 (PR8). Also on record: species or system female Balb/c mice. The conditions noted are these: mouse, in vivo.
The subject of series [5] is H1N1 (PR8). On the set-up: species or system female Balb/c mice. The conditions noted are these: mouse, in vivo. The source holds these as a separate data set.
In series [6] the test system is H1N1 (PR8). Also on record: species or system female Balb/c mice. The conditions noted are these: mouse, in vivo. The source holds these as a separate data set.
Series [7] concerns H1N1 (PR8). Also on record: species or system female Balb/c mice. The conditions noted are these: mouse, in vivo. This is another data set of the same source.

In the case of `COc1cc(C(=O)c2cnc(-c3c[nH]c4ccccc34)[nH]2)cc(OC)c1OC.Cl` [17ya hydrochloride salt], the “toxicity to BSC40 cells” value in series [1] was “showed a dose response for toxicity”. Moreover, in series [2], the “vaccinia virus cell-to-cell spread” value was “clear dose-dependent response”. Also, the IC50 (as a rule, the concentration at which inhibition is half-maximal) in series [2] (read-out: IC50, vaccinia virus cell-to-cell spread) worked out at 0.0157 µM; in series [3] (read-out: IC50, virus released into the media (EEV)) it was 0.0243 µM. For the same compound, the IC90 (in general, the point of the concentration-response curve where the effect stands at 90%) in series [2] (read-out: IC90, vaccinia virus cell-to-cell spread) was 0.027 µM; in series [3] (read-out: IC90, virus released into the media (EEV)), 0.0378 µM. For the same compound, in series [3], the “release of extracellular enveloped virus (EEV) from infected cells” value was “dose dependent inhibition of virus released”. In addition, in series [3], the “virus associated with the infected cells (IMV)” value was “not a good correlation between the amount of drug and the amount of virus produced”.

Regarding `CCOC(=O)C1=C[C@@H](OC(CC)CC)[C@H](NC(C)=O)[C@@H](N)C1` [Oseltamivir], in series [4], the “H1N1 induced higher PenH” value is recorded as “completely attenuated H1N1 induced higher PenH”. Also, in series [5], the “body weight gain / body weight loss vs H1N1 vehicle control group” value is “statistically significantly higher (p<0.01) body weight gain from Day 6 to Day 11; also recorded: attenuated the clinical signs and bodyweight loss”; the “clinical signs associated with H1N1 infection” value is “attenuation of the clinical signs; also recorded: attenuated the clinical signs”. Moreover, in series [6], the “BAL Cytokine level: IFN-γ” value is given as 2.78 ± pg/ml, the “BAL Cytokine level: IL-6” value is recorded as 31.01 ± pg/ml, the “BAL Cytokine level: IP-10” value is recorded as 147.64 ± pg/ml and the “BAL Cytokine level: KC” value is reported as 88.29 ± pg/ml. Further, in series [6], the “BAL cytokine levels compared to the H1N1 control group” value is “statistically significantly (p<0.01) lower TNFα, IFNγ, IL-6, KC, and IP-10; also recorded: statistically significantly lower BAL total cells, neutrophils, eosinophils, lymphocytes, mononuclear cells BAL IFNγ, IL-6, IP-10, KC and TNFα”. In addition, in series [7], the “BAL cell counts: Eosinophils” value is reported as 0.01 ± million/animal, the “BAL cell counts: Lymphocytes” value is given as 0.09 ± million/animal, the “BAL cell counts: Mononuclear cells” value was 0.01 ± million/animal and the “BAL cell counts: Neutrophils” value is reported as 0.15 ± million/animal. For the same compound, in series [7], the “BAL cell counts: Totals” value was 0.27 ± million/animal; the “BAL total and differential cells compared to the H1N1 control group” value is “statistically significantly (p<0.01) lower BAL total cells, neutrophils, eosinophils, lymphocytes, and mononuclear cells”.

Regarding `C[C@@H]1C[C@H]2[C@@H]3CCC4=CC(=O)C=C[C@]4(C)[C@@]3(F)[C@@H](O)C[C@]2(C)[C@@]1(O)C(=O)CO` [Dexamethasone], in series [6], the “BAL Cytokine level: IFN-γ” value is recorded as 4.80 ± pg/ml, the “BAL Cytokine level: IL-6” value is on record as 351.37 ± pg/ml, the “BAL Cytokine level: IP-10” value is 1102.42 pg/mL and the “BAL Cytokine level: KC” value came to 854.41 pg/mL. In series [6], the “BAL Cytokine level: TNF-α” value was 24.08 pg/mL, the “change in CXCL-10 in BAL fluid” value is −8%, the “change in Interferon-γ (INF-γ) in BAL fluid” value is −81% and the “change in Interleukin-6 (IL-6) in BAL fluid” value was −52%. In addition, in series [6], the “change in Keratinocyte-derived chemokine (KC) in BAL fluid” value is “+20%” and the “change in TNF-α in BAL fluid” value was −13%. Besides, in series [7], the “BAL cell counts: Eosinophils” value stood at 0.03 million/animal, the “BAL cell counts: Lymphocytes” value is on record as 0.15 million/animal, the “BAL cell counts: Mononuclear cells” value is recorded as 0.02 million/animal and the “BAL cell counts: Neutrophils” value is 0.34 million/animal. Besides, the “BAL cell counts: Totals” value in series [7] was 0.54 million/animal.
